Reference: ChEMBL document CHEMBL1201862, “PubChem BioAssay data set” (2004)
Structures can show the parent of a compound that is named as a salt. The source made the active and inactive calls.

Tests used:
[1] = test system: HEK293; test: inhibition of NOD1-driven NF-kB reporter – cell-based, luminescence, uHTS, primary screen (AID 1578); type: functional; settings: Homo sapiens
[2] = test system: HEK293; test: cells; type: functional, cell-based; settings: Homo sapiens
[3] = test system: HEK293; test: cells; type: functional, cell-based; settings: Homo sapiens; remark: listed apart in the source
[4] = test system: HEK293; test: NOD2 signaling inhibitors in MDP-stimulated cells, cell-based, uHTS, luminescence (AID 2001); type: functional; settings: Homo sapiens
[5] = Trypanosoma cruzi growth suppression in host cells – NIH3T3 host cells, beta-gal luminescence, confirmation (AID 2044); type: functional, cell-based;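 further: intracellular parasites grown in NIH/3T3 mouse fibroblasts as host cells; luminescent beta-galactosidase reporter signal from transgenic T. cruzi replicating inside host cells; inhibitors lower the luminescence signal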
[6] = NIH3T3 cell viability loss – ATP luminescence, mouse fibroblasts, counter-screen, dose response (AID 2010); type: functional, cell-based;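 further: cells exposed to compound for about 90 hours before reading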
[7] = HEK-293T viability loss after treatment – luminescence, T-cell screen hits, cytotoxicity control for TCR NF-kB inhibitor project, dose response (AID 489026); type: functional, cell-based;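 further: cells exposed to compound about 14 hours before the viability readout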
[8] = test system: INS1; test: INS-1E survival protection against cytokine death – cell-based, luminescence, retest, dose response (AID 449756); type: functional; settings: Rattus norvegicus;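 further: cell death triggered by IL-1 beta plus TNF-alpha plus IFN-gamma mixture; protective hits raise ATP signal compared with cytokine alone wells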
[9] = reduction of Shn3 3'UTR-driven luciferase in osteoblasts – cell-based, Clone20 osteoblasts, firefly luciferase, cherry-picked, dose response (AID 624132); type: functional;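 further: firefly luciferase luminescence from reporter carrying the Shn3 3'UTR in osteoblasts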
[10] = loss of viability in HepG2 cells – cell-based, CellTiter-Glo, cherry-picked, cytotoxicity control for Shn3 inhibitor project, dose response (AID 624134); type: functional
[11] = non-specific 3'UTR reporter inhibition in Clone20-Shn3RL – cell-based, Renilla luciferase, cherry-picked, counter-screen for Shn3 inhibitor project, dose response (AID 624133); type: functional
[12] = molecular target: COUP transcription factor 2 (Homo sapiens, UniProt P24468); test: Luminescence-based cell-based high throughput dose response assay to identify inhibitors of COUP-TFII (NR2F2).; type: functional;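 further: HEK293 cells transiently cotransfected with COUP-TFII expression vector and reporter; luciferase reporter luminescence driven by COUP-TFII from the pX2-168 reporter plasmid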
COUP transcription factor 2, sequence (P24468 whole entry): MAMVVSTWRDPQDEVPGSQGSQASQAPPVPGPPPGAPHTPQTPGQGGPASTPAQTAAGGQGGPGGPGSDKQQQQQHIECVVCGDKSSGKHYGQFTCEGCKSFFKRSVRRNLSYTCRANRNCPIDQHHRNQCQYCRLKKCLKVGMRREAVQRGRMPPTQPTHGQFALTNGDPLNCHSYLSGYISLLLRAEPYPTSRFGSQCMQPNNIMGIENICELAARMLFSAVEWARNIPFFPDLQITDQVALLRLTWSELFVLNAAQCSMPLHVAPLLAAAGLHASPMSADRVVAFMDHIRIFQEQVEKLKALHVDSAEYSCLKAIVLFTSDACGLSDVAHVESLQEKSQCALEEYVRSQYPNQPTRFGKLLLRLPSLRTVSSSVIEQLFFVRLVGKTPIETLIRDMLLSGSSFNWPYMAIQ

[13] = cells
[14] = molecular target: Transitional endoplasmic reticulum ATPase (Homo sapiens, UniProt P55072, C522A); test: Luminescence counterscreen assay for p97 inhibitors: dose response biochemical high throughput screening assay to identify inhibitors of the C522A mutant p97 ATPase: synthesized compounds. [Related pubchem assays: 1481, 1517, 1551 ]
Transitional endoplasmic reticulum ATPase (Homo sapiens, UniProt P55072, C522A), sequence (P55072 2-806 C522A limits assumed): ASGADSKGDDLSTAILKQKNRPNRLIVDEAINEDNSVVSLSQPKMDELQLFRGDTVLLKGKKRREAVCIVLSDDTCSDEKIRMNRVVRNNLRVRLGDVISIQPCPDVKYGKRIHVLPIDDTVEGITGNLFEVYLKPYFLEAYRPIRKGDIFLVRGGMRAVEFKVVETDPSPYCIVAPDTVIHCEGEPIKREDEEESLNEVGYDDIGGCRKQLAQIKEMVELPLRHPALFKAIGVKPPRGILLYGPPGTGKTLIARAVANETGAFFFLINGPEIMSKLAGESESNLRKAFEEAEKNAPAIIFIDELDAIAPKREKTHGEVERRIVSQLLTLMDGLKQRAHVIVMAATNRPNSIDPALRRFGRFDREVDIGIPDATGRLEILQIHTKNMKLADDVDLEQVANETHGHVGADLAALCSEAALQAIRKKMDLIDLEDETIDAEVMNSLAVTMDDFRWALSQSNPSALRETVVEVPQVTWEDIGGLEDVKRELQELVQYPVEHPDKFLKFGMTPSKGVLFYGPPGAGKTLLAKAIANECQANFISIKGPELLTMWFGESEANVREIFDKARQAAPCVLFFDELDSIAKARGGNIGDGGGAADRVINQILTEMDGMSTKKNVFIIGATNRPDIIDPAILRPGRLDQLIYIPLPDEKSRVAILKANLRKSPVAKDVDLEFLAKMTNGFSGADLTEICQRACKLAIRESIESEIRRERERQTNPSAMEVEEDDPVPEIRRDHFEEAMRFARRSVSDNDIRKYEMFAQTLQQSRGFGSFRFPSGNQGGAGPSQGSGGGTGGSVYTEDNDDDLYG

[15] = molecular target: Transitional endoplasmic reticulum ATPase (Homo sapiens, UniProt P55072); test: Luminescence dose response biochemical high throughput screening assay for inhibitors of the p97 ATPase: synthesized compounds. [Related pubchem assays: 1481, 1517 ]
Transitional endoplasmic reticulum ATPase (Homo sapiens, UniProt P55072), sequence (P55072 whole entry): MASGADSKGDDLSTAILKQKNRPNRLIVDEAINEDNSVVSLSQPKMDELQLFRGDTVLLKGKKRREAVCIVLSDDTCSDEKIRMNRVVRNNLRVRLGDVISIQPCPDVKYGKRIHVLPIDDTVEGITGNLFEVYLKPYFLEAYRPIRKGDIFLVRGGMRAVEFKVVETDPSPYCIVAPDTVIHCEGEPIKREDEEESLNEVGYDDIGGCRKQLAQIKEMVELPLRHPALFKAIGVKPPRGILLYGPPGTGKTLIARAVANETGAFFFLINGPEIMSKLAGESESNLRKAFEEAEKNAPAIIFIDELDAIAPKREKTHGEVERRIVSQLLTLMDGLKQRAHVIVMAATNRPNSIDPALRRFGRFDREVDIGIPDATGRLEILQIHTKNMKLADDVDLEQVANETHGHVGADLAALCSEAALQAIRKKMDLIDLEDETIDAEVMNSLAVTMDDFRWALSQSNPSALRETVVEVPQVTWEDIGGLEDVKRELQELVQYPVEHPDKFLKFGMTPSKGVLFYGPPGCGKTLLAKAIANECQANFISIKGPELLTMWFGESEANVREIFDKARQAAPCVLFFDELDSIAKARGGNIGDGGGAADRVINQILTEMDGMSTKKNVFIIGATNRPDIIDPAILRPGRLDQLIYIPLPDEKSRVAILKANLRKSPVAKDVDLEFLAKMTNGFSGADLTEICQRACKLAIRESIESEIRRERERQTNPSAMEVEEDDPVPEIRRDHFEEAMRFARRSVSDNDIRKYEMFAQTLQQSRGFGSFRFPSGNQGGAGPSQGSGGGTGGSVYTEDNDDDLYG

[16] = HPDE-C7 pancreatic duct cell viability loss – fluorescence, HTS (AID 430); type: functional, cell-based; settings: Homo sapiens
[17] = microbe, parasite or virus in culture; type: functional; settings: Mycobacterium tuberculosis
[18] = viability loss of HPDE-C7K cells – cell-based, fluorescence, HTS, primary screen (AID 431); type: functional; settings: Homo sapiens
[19] = viability loss in CEM21 cells – cell-based, CellTiter-Glo luminescence, cherry-picked, cytotoxicity control for viral fusion inhibitor project, dose response (AID 652042); type: functional;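 further: potency for signal decrease meaning cytotoxicity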
[20] = blockers of HIV-1 ZM109 envelope-driven cell-cell fusion – HeLa effector, CEM target cells, luciferase, cherry-pick, dose response (AID 652058); type: functional, cell-based;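 further: luciferase signal from HIV-1 Env mediated cell-cell fusion of effector and target cells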
[21] = cells; type: functional, cell-based
[22] = Luminescence-based dose response cell-based high throughput screening assay for cytotoxic compounds using the IEC-6 intestinal epithelial cell line. [Related pubchem assays: 1858 (Summary AID.), 1825 (Counterscreen.), 1907 (Confirmation screen.)]; type: functional
[23] = cells; type: functional, cell-based; remark: listed apart in the source
[24] = molecular target: Albumin (Bos taurus, UniProt P02769); test: Counterscreen for inhibitors of T-cell receptor (TCR)-CD3 interaction: Fluorescence-based biochemical high throughput dose response assay to identify inhibitors of T-cell receptor (TCR)-CD3 interaction using a TAMRA-labeled BSA probe.; type: functional
Albumin, sequence (P02769 whole entry): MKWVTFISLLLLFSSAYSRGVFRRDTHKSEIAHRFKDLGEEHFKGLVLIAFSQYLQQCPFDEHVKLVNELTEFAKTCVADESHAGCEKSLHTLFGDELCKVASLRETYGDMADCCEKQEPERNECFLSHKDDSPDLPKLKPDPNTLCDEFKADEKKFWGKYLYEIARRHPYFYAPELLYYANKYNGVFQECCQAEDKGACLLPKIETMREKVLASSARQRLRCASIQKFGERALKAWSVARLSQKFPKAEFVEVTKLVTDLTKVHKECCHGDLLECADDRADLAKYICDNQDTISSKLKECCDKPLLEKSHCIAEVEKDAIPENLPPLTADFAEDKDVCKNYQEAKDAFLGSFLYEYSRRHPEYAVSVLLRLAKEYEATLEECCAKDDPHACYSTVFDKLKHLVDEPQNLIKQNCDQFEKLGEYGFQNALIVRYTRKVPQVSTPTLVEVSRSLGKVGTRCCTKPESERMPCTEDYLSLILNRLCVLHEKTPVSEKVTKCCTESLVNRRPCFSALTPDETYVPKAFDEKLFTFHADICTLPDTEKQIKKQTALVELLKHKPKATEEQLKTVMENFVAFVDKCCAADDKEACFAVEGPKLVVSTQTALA

[25] = HGIII-sPLA2 enzyme inhibition potency – biochemical, QFRET, IC50, dose response (AID 743457);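 further: green fluorescence rise as the enzyme cleaves BODIPY PC-A2 in liposomes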
[26] = molecular target: Endoplasmic reticulum aminopeptidase 1 (Homo sapiens, UniProt Q9NZ08); test: inhibition of human ERAP1 enzyme activity – biochemical, cherry-pick, set 2, plate reader, dose response (AID 743314)
Endoplasmic reticulum aminopeptidase 1, sequence (Q9NZ08 whole entry): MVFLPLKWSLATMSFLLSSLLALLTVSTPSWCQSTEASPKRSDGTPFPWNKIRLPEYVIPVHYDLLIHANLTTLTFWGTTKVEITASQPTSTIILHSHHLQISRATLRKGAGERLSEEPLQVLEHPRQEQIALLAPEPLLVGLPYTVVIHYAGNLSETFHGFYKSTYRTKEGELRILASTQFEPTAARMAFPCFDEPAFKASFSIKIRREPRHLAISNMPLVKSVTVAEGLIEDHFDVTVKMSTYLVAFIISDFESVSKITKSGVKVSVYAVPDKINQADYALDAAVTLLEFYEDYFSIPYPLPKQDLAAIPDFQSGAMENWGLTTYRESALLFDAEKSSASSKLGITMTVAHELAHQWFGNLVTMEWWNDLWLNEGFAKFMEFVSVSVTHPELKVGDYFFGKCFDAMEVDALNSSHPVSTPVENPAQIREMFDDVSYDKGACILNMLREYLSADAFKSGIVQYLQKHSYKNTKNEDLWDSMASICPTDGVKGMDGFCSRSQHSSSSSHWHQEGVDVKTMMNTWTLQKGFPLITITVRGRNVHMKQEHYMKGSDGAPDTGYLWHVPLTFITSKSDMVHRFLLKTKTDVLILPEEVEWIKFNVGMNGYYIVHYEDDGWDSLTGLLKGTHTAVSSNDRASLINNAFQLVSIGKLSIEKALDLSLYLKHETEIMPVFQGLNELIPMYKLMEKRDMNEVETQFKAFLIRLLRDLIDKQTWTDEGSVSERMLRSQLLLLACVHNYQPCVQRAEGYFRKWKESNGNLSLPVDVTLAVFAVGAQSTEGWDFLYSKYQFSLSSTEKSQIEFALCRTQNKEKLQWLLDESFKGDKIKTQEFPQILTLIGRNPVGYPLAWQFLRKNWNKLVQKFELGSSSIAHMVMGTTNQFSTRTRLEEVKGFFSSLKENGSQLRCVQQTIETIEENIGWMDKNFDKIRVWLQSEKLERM

[27] = molecular target: Paired box protein Pax-8 (Homo sapiens, UniProt Q06710); test: PAX8 transcriptional activity inhibition in RMG-I – RMG-I cells, luciferase, cherry-pick, dose response (AID 687027); type: functional, cell-based;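 further: luciferase reporter driven by Pax8 target thyroperoxidase promoter measured by SteadyGlo luminescence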
Paired box protein Pax-8, sequence (Q06710 whole entry): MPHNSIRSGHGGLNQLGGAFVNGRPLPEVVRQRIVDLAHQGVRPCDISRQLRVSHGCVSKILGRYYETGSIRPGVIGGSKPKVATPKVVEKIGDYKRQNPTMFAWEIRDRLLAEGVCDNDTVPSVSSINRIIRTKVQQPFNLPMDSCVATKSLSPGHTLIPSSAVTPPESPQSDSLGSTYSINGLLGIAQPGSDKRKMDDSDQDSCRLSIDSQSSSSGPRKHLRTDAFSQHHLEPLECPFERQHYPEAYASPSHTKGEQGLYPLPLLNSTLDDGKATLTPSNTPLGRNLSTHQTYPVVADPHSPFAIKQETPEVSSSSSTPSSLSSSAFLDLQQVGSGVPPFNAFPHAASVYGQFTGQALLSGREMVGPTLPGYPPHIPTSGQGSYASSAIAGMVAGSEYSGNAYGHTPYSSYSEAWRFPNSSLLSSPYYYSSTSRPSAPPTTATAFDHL

[28] = OVCAR8 cell viability loss – plate reader, dry powder samples, PAX8 project, dose response (AID 743197); type: functional, cell-based; settings: OVCAR-8
[29] = lung carcinoma cell viability loss – CellTiter-Glo luminescence, dry powder, set 17, dose response (AID 1117284); type: functional, cell-based; settings: A549
[30] = T. cruzi growth inhibition in host cells, dose response, cell-based, plate reader, dry powder, set 2 (AID 652275); type: functional
[31] = molecular target: Protein Wnt-3a (Mus musculus, UniProt P27467); test: SAR analysis of small molecule antagonists of Gli-SUFU in a Wnt3a luminescent reporter assay.; type: functional
Protein Wnt-3a, sequence (P27467 whole entry): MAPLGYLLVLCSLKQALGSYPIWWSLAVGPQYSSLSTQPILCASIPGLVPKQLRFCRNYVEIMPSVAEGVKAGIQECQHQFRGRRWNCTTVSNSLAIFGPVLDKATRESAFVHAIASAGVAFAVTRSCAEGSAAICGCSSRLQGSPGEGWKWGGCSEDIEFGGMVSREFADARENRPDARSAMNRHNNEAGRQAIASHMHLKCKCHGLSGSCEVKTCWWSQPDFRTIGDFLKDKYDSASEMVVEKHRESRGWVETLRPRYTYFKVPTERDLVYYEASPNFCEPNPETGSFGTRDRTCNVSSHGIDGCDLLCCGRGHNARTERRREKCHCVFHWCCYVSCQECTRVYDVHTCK

[32] = inhibitors of non-replicating M. tuberculosis, dose response, luciferase, dry powder (AID 651619); type: functional; settings: Mycobacterium tuberculosis
[33] = inhibitors of non-replicating M. tuberculosis, dose response, luciferase, dry powder (AID 651620); type: functional; settings: Mycobacterium tuberculosis
[34] = growth inhibition of yeast DHODH-expressing 3D7 parasites – SYBR Green, dry powder samples, dose response (AID 1159570); type: functional, cell-based;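 further: parasite growth measured after 72 hours of compound exposure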
[35] = toxicity to human HepG2 hepatoma cells – cell-based, plate reader, dry powder samples, cytotoxicity control, dose response (AID 1159569); type: functional;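 further: inhibitor potency with signal falling toward the positive control level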
[36] = P. falciparum Dd2 growth inhibitors, dose response, SYBR Green, cherry-picked samples (AID 1159567); type: functional, cell-based
[37] = Dd2 malaria parasite growth inhibition potency – SYBR Green, dry powder samples, dose response (AID 1159566); type: functional, cell-based;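 further: potency for growth inhibition with lower SYBR green DNA signal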
[38] = growth inhibition of PfATP4-mutant resistant parasites – NITD609-resistant line, SYBR Green, dry powder, dose response (AID 1159571); type: functional, cell-based;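 further: parasites synchronized at ring stage by sorbitol before testing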
[39] = viability of PTEN-deleted HCT116 cells – cell-based, HCT116 PTEN knockout, dose response (AID 1047); type: functional;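 further: HCT116 colon tumor cells with PTEN knocked out; cells exposed to compound for 60 hours before readout; potency for loss of cell viability measured by luminescence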
[40] = viability of HCT116 lacking mutant beta-catenin – cell-based, human colon tumor, dose response (AID 1045); type: functional;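 further: HCT116 colon tumor cells with beta catenin knocked out; cells exposed to compound for 60 hours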
[41] = Luminescence Cell-Based Dose Retest to Confirm Inhibitors of Cancer Stem Cells. [Related pubchem assays (depositor defined):AID2717, AID2721]; type: functional; settings: Homo sapiens
[42] = molecular target: T1, Ubiquitin-conjugating enzyme E2 N (Homo sapiens, UniProt P61088); type: functional;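 further: Dose-response confirmation in a TR-FRET assay detecting UBC13-driven polyubiquitin chain formation, inhibition measured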
T1 sequence (P61088 whole entry): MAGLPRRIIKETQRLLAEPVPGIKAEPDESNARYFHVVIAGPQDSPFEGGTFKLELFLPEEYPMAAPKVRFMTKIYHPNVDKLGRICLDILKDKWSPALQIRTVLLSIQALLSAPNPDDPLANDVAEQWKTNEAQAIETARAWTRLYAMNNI

[43] = blockers of HIV-1 envelope-mediated cell-cell fusion – cherry-pick, dose response (AID 652057); type: functional, cell-based
[44] = off-target signal loss in HeLa-CEM21 co-culture – HeLa F-luc CTL cells, cherry-picked, counter-screen for HIV-1 Env fusion inhibitor project, dose response (AID 652040); type: functional, cell-based;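 further: potency for signal decrease marking cytotoxic or nonspecific inhibition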
[45] = HIV-1 AD8 envelope cell-cell fusion blockers – cherry-pick, dose response (AID 652062); type: functional, cell-based;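 further: luciferase signal from cell-cell fusion driven by HIV-1 clade B AD8 Env; potency is for inhibitors of fusion seen as a drop in luminescence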
[46] = molecular target: Cytochrome P450 2C19 (Homo sapiens, UniProt P33261); test: Cytochrome panel assay with activity outcomes. Panel member name: p450-cyp2c19 Compounds with AC50 equal or less than 10 uM are considered active; type: functional; settings: read-out: AC50
Cytochrome P450 2C19, sequence (P33261 whole entry): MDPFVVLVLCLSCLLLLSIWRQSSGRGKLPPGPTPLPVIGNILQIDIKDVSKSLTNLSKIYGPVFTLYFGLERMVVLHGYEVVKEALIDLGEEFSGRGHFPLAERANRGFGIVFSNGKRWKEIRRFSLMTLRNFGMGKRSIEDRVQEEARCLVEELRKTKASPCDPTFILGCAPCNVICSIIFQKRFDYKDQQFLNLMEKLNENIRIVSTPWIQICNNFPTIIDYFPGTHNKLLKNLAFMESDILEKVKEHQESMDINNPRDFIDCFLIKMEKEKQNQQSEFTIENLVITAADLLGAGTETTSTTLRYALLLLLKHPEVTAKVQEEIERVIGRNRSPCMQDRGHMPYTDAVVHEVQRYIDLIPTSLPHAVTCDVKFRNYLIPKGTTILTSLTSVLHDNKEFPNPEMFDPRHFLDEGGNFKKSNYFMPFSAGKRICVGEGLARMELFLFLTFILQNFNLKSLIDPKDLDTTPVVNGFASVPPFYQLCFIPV

[47] = IC50 of insulin release inhibition, rat insulinoma INS-1E line, 5 mM glucose, cell-based (AID 1117331); type: functional
[48] = cells; type: functional, cell-based; settings: INS-1E
[49] = molecular target: T2, Cytochrome P450 1A2 (Homo sapiens, UniProt P05177);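 further: PubChem cytochrome P450 panel assay, CYP1A2 panel member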
T2 sequence (P05177 whole entry): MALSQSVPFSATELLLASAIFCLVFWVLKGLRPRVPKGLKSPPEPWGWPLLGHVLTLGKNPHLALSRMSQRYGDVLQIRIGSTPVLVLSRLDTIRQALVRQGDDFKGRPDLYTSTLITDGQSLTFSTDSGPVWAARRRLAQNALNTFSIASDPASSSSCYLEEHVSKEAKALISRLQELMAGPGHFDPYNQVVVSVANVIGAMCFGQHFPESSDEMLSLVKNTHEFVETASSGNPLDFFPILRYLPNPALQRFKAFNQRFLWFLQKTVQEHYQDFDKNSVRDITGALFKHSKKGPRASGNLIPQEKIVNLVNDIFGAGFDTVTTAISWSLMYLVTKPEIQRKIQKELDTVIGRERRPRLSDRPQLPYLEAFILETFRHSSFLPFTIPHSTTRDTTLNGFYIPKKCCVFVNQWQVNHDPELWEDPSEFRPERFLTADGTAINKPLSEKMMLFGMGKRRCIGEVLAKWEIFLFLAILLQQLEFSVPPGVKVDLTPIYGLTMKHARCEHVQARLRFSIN

COc1ccc(C2=Nn3c([n+](C)c4ccccc43)SC2)cc1
EC50 [1]: 11.1 µM (active)
IC50 [2]: 12.2 µM (active)
IC50 [3]: > 20 µM (inactive)
IC50 [4]: 13 µM (inactive)
EC50 [5]: < 0.1 µM (active)
EC50 [6]: > 60 µM (not active)
IC50 [7]: > 80 µM (inactive)
AC50 [8]: 1.54 µM (active)
AC50 [9]: 1.16 µM (active)
AC50 [10]: > 70 µM (inactive)
AC50 [11]: 3.2 µM (active)
IC50 [12]: 5.66 µM (active)
EC50 [13]: 0.087 µM (active)

CCOC(=O)/C(C#N)=C/c1ccc(F)cc1[N+](=O)[O-]
IC50 [14]: > 50 µM (not active)
IC50 [15]: > 50 µM (not active)

Cc1cc(-c2csc(Nc3ccc(C#N)cc3)n2)c(C)n1CCc1ccccc1
IC50 [14]: > 50 µM (not active)
IC50 [15]: > 50 µM (not active)

Cc1ccc(Cl)cc1S(=O)(=O)N1CCC(C(=O)NC2CCN(Cc3ccccc3)CC2)CC1
IC50 [12]: 12 µM (inactive)

Cc1oc(C(=O)Nc2ccc(O)cc2)cc1COc1ccccc1
EC50 [16]: 16.6 µM (active)
CC50 [17]: > 40 µM (active)
EC50 [18]: 13.9 µM (active)

C[C@@H]1CN([C@H](C)CO)S(=O)(=O)c2ccc(C#Cc3cccc(F)c3)cc2O[C@@H]1CN(C)C(=O)CN1CCOCC1
AC50 [19]: 40.3 µM (active)
AC50 [20]: 0.899 µM (active)

C/C(=N\NC(=O)c1nnn(-c2nonc2N)c1-c1ccccc1)c1ccccc1O
EC50 [21]: 113 µM (active)
EC50 [5]: 0.617 µM (active)
IC50 [22]: 1.19 µM (active)
EC50 [23]: 58.5 µM (active)
EC50 [6]: 3.76 µM (active)
AC50 [8]: 0.353 µM (active)
IC50 [24]: > 94.1 µM (inactive)
IC50 [25]: > 122 µM (inactive)

CCCNC(=O)N(C)C[C@@H]1Oc2ncc(-c3ccncc3)cc2C(=O)N([C@H](C)CO)C[C@@H]1C
AC50 [26]: 16.9 µM (active)

C[C@@H]1CN([C@@H](C)CO)S(=O)(=O)c2ccc(C#C[C@@H](C)O)cc2O[C@@H]1CN(C)Cc1ccc(-c2ccccc2)cc1
AC50 [27]: 12.3 µM (active)
AC50 [28]: > 70 µM (inactive)
AC50 [29]: > 52 µM (inactive)

C[C@H]1CN([C@@H](C)CO)C(=O)c2cccc(NC(=O)c3ccncc3)c2O[C@@H]1CN(C)Cc1ccc(F)cc1Cl
AC50 [30]: 0.0324 µM (active)

CN(C)c1cc(NC(=O)c2ccccc2)ncn1
IC50 [31]: > 21.8 µM (inactive)

CN(C)C(=O)c1ccc(-c2ccc([C@H]3[C@H](CO)N4CCCCN(CC5CC5)C[C@@H]34)cc2)cc1
AC50 [30]: 2.74 µM (active)

COc1ccc(CSc2nnc(-c3ccc(Cl)cc3)o2)nc1
IC90 [32]: 2 µM (active)
IC90 [33]: 2 µM (active)

CCC(=O)N1[C@H](C(=O)OC)[C@@H](CO)[C@@H]2Cn3c(ccc(/C=C/c4ccccc4)c3=O)[C@@H]21
AC50 [26]: 12.8 µM (active)

COc1cccc(NC(=O)N2[C@@H](CO)[C@H](c3ccccc3)[C@@H]2CNCC(C)C)c1
AC50 [34]: 1.46 µM (active)
AC50 [35]: 95.4 µM (active)
AC50 [36]: 2.02 µM (active)
AC50 [37]: 0.852 µM (active)
AC50 [38]: 1.66 µM (active)

COc1ccccc1-c1ccc(CN(C)C[C@@H]2Oc3cc(C#C[C@@H](C)O)ccc3S(=O)(=O)N([C@@H](C)CO)C[C@@H]2C)cc1
AC50 [29]: > 52 µM (inactive)

CN(C)C(=O)c1ccc(-c2cccc(-c3nc(C(=O)NC4CCCC4)cc4c3[C@H](CCO)N([S@@+]([O-])C(C)(C)C)C4)c2)cc1
AC50 [34]: 1.14 µM (active)
AC50 [35]: 30.5 µM (active)
AC50 [36]: 1.99 µM (active)
AC50 [37]: 0.768 µM (active)
AC50 [38]: 1.03 µM (active)

Cc1ccc(Nc2cc(C)nc(NCc3ccccc3)n2)cc1
EC50 [5]: 0.255 µM (active)
EC50 [39]: 7.18 µM (active)
EC50 [6]: > 60 µM (inconclusive)
EC50 [40]: 6.62 µM (active)
AC50 [41]: 6.3 µM (active)
IC50 [42]: > 20 µM (inactive)
AC50 [8]: 3.94 µM (active)
AC50 [43]: 4.04 µM (active)
AC50 [19]: 17.2 µM (active)
AC50 [20]: 4.51 µM (active)
AC50 [44]: 4.77 µM (active)
AC50 [45]: 7.54 µM (active)

N=C(N)NCCC[C@H](N)C(=O)O [ARGININE]
AC50 [46]: 10 µM (inconclusive)
IC50 [47]: > 33.3 µM (inactive)
IC50 [48]: > 33.3 µM (inactive)
AC50 [49]: 31.6 µM (inconclusive)

CN(C)CCOC(c1ccc(Cl)cc1)c1ccccn1 (stereo not given) [CARBINOXAMINE MALEATE]
IC50 [47]: 21.4 µM (inactive)
IC50 [48]: > 33.3 µM (inactive)
